Assay results from patent US11560362B2, “Dibutylfluorene derivative and application thereof as photoinitiator” (HUI ZHOU HUAHONG NEW MATERIAL CO., LTD., priority 2017, dated 2023).

Columns and labels:
[1] = Stability analysis: mobility of initiator compound from cured print into analog solutions, by HPLC; format: physicochemical; conditions: 40° C. for 10 days, calculated for 1 kg of food per 600 cm^2 printing area
Protocol: The cardboard is cut to a size of 10×10 cm, is completely immersed in two analog solutions, i. e., 100 ml distilled water and 3% acetic acid aqueous solution, sealing is performed well, and placement is performed at 40° C. for 10 days. The printed matter is taken out, and after standing, the contents of the initiator compounds in the analog solutions are directly analyzed by means of HPLC.

[2] = Solubility of solid photoinitiator in liquid polymerized monomer (HDDA or TPGDA); conditions: dissolved at 50-60° C., stored at room temperature

| Structure (SMILES) | Mobility ([1]; 3% acetic acid) | Mobility ([1]; Water) | Solubility ([2]; Polymerized monomer 1: HDDA) | Solubility ([2]; Polymerized monomer 2: TPGDA) |
| --- | --- | --- | --- | --- |
| CC(C)(C(=O)c1ccc(-c2ccccc2)cc1)N1CCOCC1 [2-methyl-1-(4-biphenyl)-2-morpholinyl-1-acetone] | 98 µg/kg | 80 µg/kg | 20 % (mass fraction) | 15 % (mass fraction) |
| CCCCC1(CCCC)c2ccccc2-c2ccc(C(=O)C(C)(C)N3CCOCC3)cc21 [2-methyl-1-(2-(9,9-dibutylfluorenyl))-2-(N-morpholinyl)-1-acetone] | 60 µg/kg | 50 µg/kg | – | – |
